This note sets out measurements from patent US11306076B2, “Silibinin lipoic acid ester with hepatoprotective activity and a method of preparing the same” (XI'AN TAIKOMED PHARMACEUTICAL TECHNOLOGY CO., LTD., priority 2020, dated 2022).

Test [1] has as its system Mice with Alcoholic Liver Injury. Put plainly: Protective effect on alcoholic liver injury in mice (serum ALT, AST, TG). It is filed as in vivo. The conditions noted are these: 25 days, ethanol 3 g/kg/day. As to the method:
The compound of formula (I) was prepared by the method of example 7. In order to study its protective effect on alcoholic liver injury in mice, the following animal model was designed.
Three-week-old 30-35 g SPF male mice were randomly divided into normal control group, model group, low-dose group, high-dose group and tiopronin positive control group after adaptive feeding for 3 days. The normal control group and model group were fed with basic feed every day; low dose group and high dose group were fed with basic diet every day and were given the compound of formula (I) of 10 mg/kg/day and 50 mg/kg/day, respectively; tiopronin positive control group was fed with basic feed and 50 mg/kg/day tiopronin. Ethanol 3 g/kg/day (0.01 mL/g) was given to the model group, low dose group, high dose group and tiopronin positive control group. The normal control group was given distilled water of the same volume. After 25 days, fasting for 2 hours after the last administration, glutamic pyruvic transaminase (ALT), glutamic oxaloacetic transaminase (AST) and triglyceride (TG) were measured in serum by decapitation.

Test [2] in a line: DPPH radical scavenging activity assay. Type of test: biochemical. The conditions noted are these: for DPPH Clearance rate: n = 3. From the text:
2,2-Diphenyl-1-picryl hydrazyl (DPPH) is an organic compound composed of a stable organic radical. In the DPPH molecule, due to the presence of multiple electron-withdrawing —NO2 and large π bonds of the benzene ring, nitrogen free radical is stabilized. Its methanol solution is purple and has a maximum absorption peak at 517 nm. After the addition of an antioxidant, DPPH captures an electron to be paired with the free electron, and the purple fades and turns into a yellow substance. The absorption at 517 nm disappears, and the degree of fading is quantitatively related to the number of electrons it captures. Based on this principle, a spectrophotometer is used to detect the change of the absorbance of the DPPH radical and the sample solution, and the ability of the sample to provide hydrogen atoms and scavenge free radicals can be measured.
Preparation of DPPH solution: measuring exact amount of 2,2-diphenyl-1-picryl hydrazyl (DPPH) and dissolving in toluene to prepare a 0.2 mmol/L DPPH solution, stored at 0° C. in dark.
Preparation of test solution: Vc (vitamin C, positive control), compound of formula (I) (sample), silibinin (control) and lipoic acid (control). The sample solution was subjected to gradient dilution with toluene, and three sets of controls were separately dissolved in a test tube with a certain amount of toluene to prepare the same concentration gradient as the sample.
Sample liquid absorbance measurement: Take 2 mL of sample solution (Table 2 Vc, B, C), add 2 mL of DPPH solution with concentration of 2×10^−4 mol/L, mix and react in the dark at room temperature for 30 min, adjust to zero with toluene, and measure at 517 nm. The absorbance Ai was simultaneously measured for the absorbance Aj of 2 mL of toluene mixed with 2 mL of the sample solution and the absorbance Ao of 2 mL of DPPH solution mixed with 2 mL of toluene (the experimental results are shown in Table 3).
clearance rate (%)=[1−(Ai−Aj)/Ao]*100% Clearance calculation: […]
In general terms: The DPPH test is a chemical assay of radical scavenging.

On to `COc1cc(C2Oc3cc([C@H]4Oc5cc(O)cc(O)c5C(=O)[C@@H]4O)ccc3OC2COC(=O)CCCCC2CCSS2)ccc1O` (stereo partly drawn) [Compound of Formula (I), (3-(4-hydroxy-3-methoxyphenyl)-6-((2R,3R)-3,5,7-trihydroxy-4-oxochroman-2-yl)-2,3-dihydrobenzo[b][1,4]dioxin-2-yl)methyl 5-(1,2-dithiolan-3-yl)pentanoate], for which the ALT worked out at 61.72 ± 10.37 U/L in test [1] (10 mg/kg/day) and 57.21 ± 2.93 U/L in test [1] (50 mg/kg/day). For the same molecule, the AST stood at 139.84 ± 18.95 U/L in test [1] (10 mg/kg/day) and 134.56 ± 6.57 U/L in test [1] (50 mg/kg/day). Besides, the figures for the TG in test [1] (10 mg/kg/day) and in test [1] (50 mg/kg/day) were 0.902 ± 0.19 mmol/L and 0.873 ± 0.35 mmol/L, respectively. The “DPPH Clearance rate” value in test [2] (1.76 ppm) is listed as 12.28%; in test [2] (8.80 ppm) it was 19.80%; in test [2] (21.12 ppm), 32.16%; in test [2] (42.24 ppm), 43.55%; in test [2] (79.20 ppm), 69.42%; in test [2] (112.64 ppm) it was 78.95%. The “DPPH Clearance rate” value was found to be 81.21% in test [2] (281.60 ppm), 86.70% in test [2] (492.80 ppm), 90.06% in test [2] (792.00 ppm) and 93.52% in test [2] (915.20 ppm). The “scavenging ability compared with silibinin (B) and lipoic acid (C) alone” value in test [2] (DPPH free radicals, at the same concentration) is “better”. In addition, the “scavenging ability compared with the positive control Vc group” value in test [2] (DPPH radical) is “slightly weaker”. Also, the “highest scavenging rate of DPPH radical” value in test [2] (in the determined concentration range) is reported as 93.52%.
In test [1] (50 mg/kg/day), `CC(S)C(=O)NCC(=O)O` (centres unmarked) [Tiopronin, tiopronin, reference compound] came in with an ALT of 65.32 ± 8.79 U/L, an AST of 141.37 ± 18.75 U/L and a TG of 1.156 ± 0.33 mmol/L.
Turning to `O=C(O)CCCCC1CCSS1` (centres unmarked) [C, Lipoic acid], the “DPPH Clearance rate” value in test [2] (1.76 ppm) was found to be 7.27%; in test [2] (8.80 ppm) it was 8.52%; in test [2] (21.12 ppm), 16.42%; in test [2] (42.24 ppm), 23.54%; in test [2] (79.20 ppm), 36.45%; in test [2] (112.64 ppm), 41.58%. In addition, the “DPPH Clearance rate” value in test [2] (281.60 ppm) was 54.23%; in test [2] (492.80 ppm) it was 67.82%; in test [2] (792.00 ppm) it was 72.01%; in test [2] (915.20 ppm), 73.69%.
